Results from article PMC4490227, “Identification of Glycyrrhiza as the rikkunshito constituent with the highest antagonistic potential on heterologously expressed 5-HT3A receptors due to the action of flavonoids” (Frontiers in Pharmacology, 2015).
Where two headings read alike, the source gives them in different places. Blank lines part the entries; values can stand above or below the compound they belong to.

Molecular target: T1, human 5-HT3A receptors (Homo sapiens, UniProt P46098)
T1 sequence (P46098 24-478): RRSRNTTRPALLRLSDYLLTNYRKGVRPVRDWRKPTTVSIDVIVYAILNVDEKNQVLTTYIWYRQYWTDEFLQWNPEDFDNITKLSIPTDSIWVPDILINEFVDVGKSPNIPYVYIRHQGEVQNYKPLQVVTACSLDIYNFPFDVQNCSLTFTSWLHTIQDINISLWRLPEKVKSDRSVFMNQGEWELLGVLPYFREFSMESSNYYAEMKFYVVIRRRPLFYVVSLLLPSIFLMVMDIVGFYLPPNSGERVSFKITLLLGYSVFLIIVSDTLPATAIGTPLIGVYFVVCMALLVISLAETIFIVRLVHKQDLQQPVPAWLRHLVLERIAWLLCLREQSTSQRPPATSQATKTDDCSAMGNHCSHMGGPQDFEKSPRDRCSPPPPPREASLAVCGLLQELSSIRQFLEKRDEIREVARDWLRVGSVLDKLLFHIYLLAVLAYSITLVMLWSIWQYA
Assay: Two-electrode voltage-clamp: modulation of 5-HT-induced currents at 5-HT3A receptors heterologously expressed in Xenopus laevis oocytes
Format: cell-based
Set-up: key to mode of antagonism: c, apparently competitive; nc, non-competitive
Conditions: for IC50: read-out: IC50 of substances; for inhibition of the 5-HT3A receptor response by solvent: solvent 1.0 Vol.-%; for synergistic effects between different herbal 5-HT3A receptor antagonists: pairs: 6-gingerol and citronellol, hesperetin and 6-shogaol (Supplementary Figure 3)
Description: The expression plasmid contains the cDNA coding for the 5-HT3A protein in pcDNA3 (Invitrogen) (Lobitz et al., [2001]). cRNAs were prepared using the AmpliCap T7 high-yield message marker kit (Epicenter, Madison, WI, USA), following the manufacturer's protocol. Xenopus laevis oocytes were obtained as previously described (Sherkheli et al., [2010]) and injected with a total amount of 7–20 ng of the receptor-coding cRNA using an injection-setup from WPI (Nanoliter 2000, Micro4). The injected oocytes were stored in ND 96 (96.0 mM NaCl, 2.0 mM KCl, 1.8 mM CaCl2, 1.0 mM MgCl2, 5.0 mM HEPES, pH 7.2, 200 U/ml penicillin, and 200 μg/ml streptomycin) at 17°C. Measurements were performed one to 5 days after cRNA injection.
The electrophysiological recordings were performed using the two-electrode voltage-clamp technique as previously described (Saras et al., [2008]). All of the measurements were performed in normal frog ringer (NFR) [115 mM NaCl, 2.5 mM KCl, 1.8 mM CaCl2, 10 mM HEPES; pH 7.2 (NaOH/HCl)] containing niflumic acid (NA) (100 μM) to block the Ca^2+-induced currents mediated by the intrinsic chloride channel (TMEM16A) or under Ca^2+-free conditions [115 mM NaCl, 2.5 mM KCl, 1.8 mM MgCl2, 10 mM HEPES; pH 7.2 (NaOH/HCl)]. All of the substances were applied after preincubation (30 s). The currents were recorded at a holding potential of typically −60 mV using the Cell Works 6.1.1. software (NPI).
As a control, we tested the competitive antagonists ondansetron (1 nM) and d-tubocurarine (20 μM) (Hope et al., [1996]) and the non-competitive antagonist picrotoxin (50 μM) (Das and Dillon, [2005]). […] Nevertheless, a definitive differentiation between competitive, allosteric, and concentration-dependent antagonists must be performed using ligand binding assays.
The concentration-response data were fitted with the Hill equation with variable slope using SigmaPlot 8.0 (SPSS). Thereby, the calculation of the EC50 and IC50-values was done. The deviations are represented by the standard error of the mean (SEM). The datasets were tested for statistically significant differences through Student's t-test using Excel 2010 (Microsoft) (^*p < 0.05; ^**p < 0.005; ^***p < 0.0005). For multiple comparisons, the significance levels were corrected via Bonferroni-correction.

[1] = from comparison of inhibition at 2.5 and 30 μM 5-HT
[2] = inhibition at 2.5 vs 30 μM 5-HT
[3] = read-out: Mean inhibition ± SEM [%] 5-HT [2.5 μM]
[4] = read-out: Mean inhibition ± SEM [%] 5-HT [30 μM]
[5] = substance 1 mM (Figure 2A), read-out: 5-HT3A receptor inhibition by the substances (screening)

Compound: picrotoxin [reference compound]
mode of antagonism [1]: ns/nc | Mean inhibition ± SEM [%] 5-HT [2.5 μM] (substance 50 μM, 5-HT 2.5 μM, 30 s preincubation): 72.5 ± 3.7% | Mean inhibition ± SEM [%] 5-HT [30 μM] (substance 50 μM, 5-HT 30 μM, 30 s preincubation): 73.0 ± 2.8%

Compound: C=CC(C)(C)c1cc(/C=C/C(=O)c2ccc(O)cc2)c(OC)cc1O [Licochalcone A, licochalcone A]
direct activation of 5-HT3A receptors: absence of the direct activation | residual current remaining (5 μM 5-HT): approximately 40% | mode of antagonism [1]: ^*/c | mode of antagonism [2]: apparent competitive antagonism | IC50: 14.4 ± 1.3 µM | inhibition at 1000 µM [3]: 76.1 ± 6.1% | inhibition at 1000 µM [4]: 58.7 ± 2.6% | inhibition at 1000 µM [5]: 70.6 ± 3.1%

inhibition of the 5-HT3A receptor response by solvent: 29.1 ± 4.7%
Compound: C[S+](C)[O-] [DMSO, dimethyl sulfoxide]

Compound: COc1cc2c3cc1Oc1cc(ccc1O)C[C@@H]1c4c(cc(OC)c(O)c4Oc4ccc(cc4)C[C@@H]3N(C)CC2)CC[N+]1(C)C [D-tubocurarine, d-tubocurarine, reference compound]
mode of antagonism [1]: ^**/c | inhibition at 20 µM [3]: 82 ± 3.5% | inhibition at 20 µM [4]: 45.9 ± 4.8%

inhibition at 1000 µM [5]: -3.1 ± 4.3%
Compound: CC1(C)[C@@H](O[C@H]2O[C@H](C(=O)O)[C@@H](O)[C@H](O)[C@H]2O[C@@H]2O[C@H](C(=O)O)[C@@H](O)[C@H](O)[C@H]2O)CC[C@]2(C)[C@H]3C(=O)C=C4[C@@H]5C[C@@](C)(C(=O)O)CC[C@]5(C)CC[C@@]4(C)[C@]3(C)CC[C@@H]12 [Glycyrrhizin, glycyrrhizin]

synergistic effects between different herbal 5-HT3A receptor antagonists: synergistic
Compound: CCCCC/C=C/C(=O)CCc1ccc(O)c(OC)c1 [6-shogaol]

inhibition of the 5-HT3A receptor response by solvent: 14.1 ± 2.6%
Compound: CCO [Ethanol, ethanol]

Compound: COc1ccc([C@@H]2CC(=O)c3c(O)cc(O[C@@H]4O[C@H](CO[C@@H]5O[C@@H](C)[C@H](O)[C@@H](O)[C@H]5O)[C@@H](O)[C@H](O)[C@H]4O)cc3O2)cc1O [Hesperidin, hesperidin]
5-HT3A receptor inhibition by the substances (screening) (substance 1 mM (Figure 2A)): no effect | 5-HT3A receptor inhibition by the substances (screening) (substance 1 mM (Figure 2A), listed as hesperidin): −2.6 ± 5.3%

5-HT3A receptor inhibition by the substances (screening) (substance 1 mM (Figure 2A)): antagonistic effects | inhibition at 1000 µM [5]: 57 ± 6.1%
Compound: C[C@@H]1O[C@@H](OC[C@H]2O[C@@H](Oc3c(-c4ccc(O)c(O)c4)oc4cc(O)cc(O)c4c3=O)[C@H](O)[C@@H](O)[C@@H]2O)[C@H](O)[C@H](O)[C@H]1O [rutin]

Compound: O=C1C[C@@H](c2ccc(O)cc2)Oc2cc(O)ccc21 [(-)-liquiritigenin]
mode of antagonism [1]: ^*/nc | mode of antagonism [2]: non-competitive | IC50: 210 ± 25 µM | inhibition at 500 µM [3]: 84.5 ± 2.4% | inhibition at 500 µM [4]: 93.5 ± 0.5% | inhibition at 1000 µM [5]: 92.8 ± 2.2%

Compound: COc1ccc([C@@H]2CC(=O)c3c(O)cc(O)cc3O2)cc1O [Hesperetin, hesperetin]
mode of antagonism [1]: ns/nc | synergistic effects between different herbal 5-HT3A receptor antagonists: synergistic | IC50: 218 ± 38 µM | inhibition at 1000 µM [3]: 77.3 ± 9% | inhibition at 1000 µM [4]: 79.7 ± 6.1% | 5-HT3A receptor inhibition by the substances (screening) (substance 1 mM (Figure 2A)): antagonistic effects | inhibition at 1000 µM [5]: 66.6 ± 9.3%

mode of antagonism [1]: ^***/c | mode of antagonism [2]: apparent competitive antagonism | IC50: 28 ± 2.8 µM | inhibition at 100 µM [3]: 64.7 ± 2.1% | inhibition at 100 µM [4]: 17.3 ± 2.3% | inhibition at 100 µM (substance 100 μM (Figure 2A), read-out: 5-HT3A receptor inhibition by the substances (screening)): 62.8 ± 2.1%
Compound: CC1(C)C=Cc2c(ccc3c2OC[C@@H](c2ccc(O)cc2O)C3)O1 [Glabridin, glabridin]

mode of antagonism [1]: ^*/c | inhibition at 0.001 µM [3]: 82.4 ± 3.4% | inhibition at 0.001 µM [4]: 57.9 ± 5.3%
Compound: Cc1nccn1CC1CCc2c(c3ccccc3n2C)C1=O (centres unmarked) [Ondansetron, ondansetron, reference compound]

synergistic effects between different herbal 5-HT3A receptor antagonists: synergistic
Compound: CCCCC[C@H](O)CC(=O)CCc1ccc(O)c(OC)c1 [6-gingerol]

Compound: C=C1CCC[C@]2(C)C[C@]3(O)OC(=O)C(C)=C3C[C@@H]12 [Atractylenolide III, atractylenolide III]
mode of antagonism [1]: ns/nc | IC50: 1320 ± 145 µM | inhibition at 1000 µM [3]: 55 ± 6.2% | inhibition at 1000 µM [4]: 57.8 ± 6%

synergistic effects between different herbal 5-HT3A receptor antagonists: synergistic
Compound: CC(C)=CCCC(C)CCO (centres unmarked) [citronellol]
